One molecule from patent US20240287074A1, “SALTS AND CRYSTALS” (Kinoxis Therapeutics Pty Ltd, priority 2020, published 2024) can be followed below.

Where a name gives a salt, the structure may show the parent alone.

The nature of data set [1]: Dynamic / gravimetric vapour sorption (DVS/GVS) hygroscopicity. Type of data set: physicochemical.
Data set [2] relates to C57BL/6 mouse model of opioid withdrawal. As to the kind of experiment: Naloxone precipitated oxycodone withdrawal-induced jumping. Type of data set: in vivo. The note with it: 7.3 mg/kg FBE i.p., C57BL/6 mice, 30 min session, vs OXY_VEH. As for the experimental part:
Two cohorts of adult male C57BL/6 mice were run assessing the effects of 7.3 mg/kg freebase equivalent (FBE) IP of the compound of the invention in the dihydrochloride salt form (CMPD1-2HCL) and the phosphate form 1 (CMPD1-PO4) on naloxone precipitated withdrawal-induced jumping.
The first cohort of mice (N=30) were split into the following conditions: • (1) Vehicle, 0 mg/kg (n=10); • (2) oxycodone, 0 mg/kg compound of the invention FBE in 2HCL salt form (n=10); • (3) oxycodone, 7.3 mg/kg compound of the invention FBE in 2HCL salt form (n=10).
The second cohort of mice (N=24) were split into the following conditions: • (1) Vehicle, 0 mg/kg (n=8); • (2) oxycodone, 0 mg/kg compound of the invention FBE in PO4 salt form (n=8); • (3) oxycodone, 7.3 mg/kg compound of the invention FBE in PO4 salt form (n=8).
Mice in the oxycodone conditions received i.p. injections of oxycodone for 5 days according to the schedule and doses set out in Table 8. The morning and afternoon doses were separated by 7 h. Mice in the vehicle condition received injections of vehicle saline instead of oxycodone. […]
Testing involved placing mice individually into a 20 (I)×20 (w)×30 (h) cm arena for 30 min. […] Number of jumps were scored from the videos by an experienced experimenter blind to conditions.
Data were analysed by SPSS using oneway ANOVA and planned contrasts.

In the case of `Cn1ncc2c1Nc1ccccc1NC2` [Phosphate form 1, phosphoric acid addition salt of 1-methyl-1,4,5,10-tetrahydropyrazolo[3,4-b][1,5]benzodiazepine], the “change in form by XRPD post-DVS analysis” value in data set [1] is given as “No evidence of form changes or hydrate formation”. Also, the hygroscopicity result in data set [1] (DVS, 25° C.) is “slightly hygroscopic”. Moreover, in data set [1] (at 90% RH), the DVS mass increase result is given as “about 0.4%”. Moreover, the oxycodone withdrawal-induced jumping result in data set [2] is on record as “significantly inhibited”.
